Consider 3 molecules from patent US12479847B2 (DANA-FARBER CANCER INSTITUTE, INC., priority 2019, dated 2025).

Holding throughout (assay): KINOMEscan (ScanMAX) kinase profiling
Format in all cases: binding

Test [1] deals with T1, panel of 468 kinases (Homo sapiens, UniProt Q9UKE5).
T1 construct: purchased KINOMEscan (ScanMAX) service
The note with it: TNIK; 1 μM; read-out: % control.

In test [2] the target is T2, panel of 468 kinases (Homo sapiens, UniProt Q96GD4).
T2 construct: purchased KINOMEscan (ScanMAX) service
T2 sequence (Q96GD4 whole entry): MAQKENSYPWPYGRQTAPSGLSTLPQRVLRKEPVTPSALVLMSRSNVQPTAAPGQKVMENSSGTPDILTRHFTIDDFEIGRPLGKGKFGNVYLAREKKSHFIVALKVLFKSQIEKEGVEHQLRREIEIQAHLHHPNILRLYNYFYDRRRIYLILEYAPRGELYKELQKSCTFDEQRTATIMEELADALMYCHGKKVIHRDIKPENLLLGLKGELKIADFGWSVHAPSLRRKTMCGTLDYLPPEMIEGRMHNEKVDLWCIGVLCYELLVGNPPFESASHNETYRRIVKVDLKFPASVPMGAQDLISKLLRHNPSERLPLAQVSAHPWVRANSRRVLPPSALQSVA
The note with it: AURKB; 1 μM; read-out: % control.

Test [3] deals with T3, panel of 468 kinases (Homo sapiens, UniProt P16591).
T3 construct: purchased KINOMEscan (ScanMAX) service
T3 sequence (P16591 whole entry): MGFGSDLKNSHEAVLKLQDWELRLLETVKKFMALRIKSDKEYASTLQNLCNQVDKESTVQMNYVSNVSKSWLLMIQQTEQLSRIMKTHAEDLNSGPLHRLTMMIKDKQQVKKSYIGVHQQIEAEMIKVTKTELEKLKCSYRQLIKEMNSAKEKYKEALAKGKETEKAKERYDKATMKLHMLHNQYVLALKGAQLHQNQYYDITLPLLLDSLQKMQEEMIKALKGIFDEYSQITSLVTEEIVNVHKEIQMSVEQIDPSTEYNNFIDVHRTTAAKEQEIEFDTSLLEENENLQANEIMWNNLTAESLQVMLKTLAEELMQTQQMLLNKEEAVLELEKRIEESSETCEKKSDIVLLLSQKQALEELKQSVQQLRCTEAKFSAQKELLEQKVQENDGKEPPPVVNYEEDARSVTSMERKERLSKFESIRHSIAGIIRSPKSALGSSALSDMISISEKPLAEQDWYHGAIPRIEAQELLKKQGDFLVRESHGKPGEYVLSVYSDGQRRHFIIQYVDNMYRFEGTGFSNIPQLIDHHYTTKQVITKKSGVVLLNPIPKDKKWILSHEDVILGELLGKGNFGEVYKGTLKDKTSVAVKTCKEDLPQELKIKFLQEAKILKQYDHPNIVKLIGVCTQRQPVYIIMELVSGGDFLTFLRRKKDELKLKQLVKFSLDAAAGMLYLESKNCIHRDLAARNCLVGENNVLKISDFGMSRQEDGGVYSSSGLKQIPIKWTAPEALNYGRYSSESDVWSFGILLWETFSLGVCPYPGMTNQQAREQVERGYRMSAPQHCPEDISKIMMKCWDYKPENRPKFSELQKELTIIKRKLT
The note with it: FER; 1 μM; read-out: % control.

The target of test [4] is T4, panel of 468 kinases (Homo sapiens, UniProt P43403).
T4 construct: purchased KINOMEscan (ScanMAX) service
T4 sequence (P43403 1-619): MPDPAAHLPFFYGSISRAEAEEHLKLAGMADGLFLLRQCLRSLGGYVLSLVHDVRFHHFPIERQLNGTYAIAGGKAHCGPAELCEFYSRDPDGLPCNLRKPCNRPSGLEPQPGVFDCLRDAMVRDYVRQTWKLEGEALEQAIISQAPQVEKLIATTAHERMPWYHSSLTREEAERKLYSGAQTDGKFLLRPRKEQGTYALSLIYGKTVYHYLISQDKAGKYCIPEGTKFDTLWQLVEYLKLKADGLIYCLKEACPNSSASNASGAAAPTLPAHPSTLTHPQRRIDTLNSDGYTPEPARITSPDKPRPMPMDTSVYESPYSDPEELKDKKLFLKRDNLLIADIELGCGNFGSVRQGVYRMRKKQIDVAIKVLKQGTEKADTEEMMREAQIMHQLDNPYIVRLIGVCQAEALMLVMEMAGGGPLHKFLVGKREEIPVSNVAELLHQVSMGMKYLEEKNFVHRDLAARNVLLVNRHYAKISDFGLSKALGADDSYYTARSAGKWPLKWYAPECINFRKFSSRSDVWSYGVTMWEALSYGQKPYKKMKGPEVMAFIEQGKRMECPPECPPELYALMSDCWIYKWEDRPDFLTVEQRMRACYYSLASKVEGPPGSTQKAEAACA
The conditions noted are these: ZAP70; 1 μM; read-out: % control.

In test [5] the target is T5, panel of 468 kinases (Homo sapiens, UniProt P54760).
T5 construct: purchased KINOMEscan (ScanMAX) service
T5 sequence (P54760 16-987): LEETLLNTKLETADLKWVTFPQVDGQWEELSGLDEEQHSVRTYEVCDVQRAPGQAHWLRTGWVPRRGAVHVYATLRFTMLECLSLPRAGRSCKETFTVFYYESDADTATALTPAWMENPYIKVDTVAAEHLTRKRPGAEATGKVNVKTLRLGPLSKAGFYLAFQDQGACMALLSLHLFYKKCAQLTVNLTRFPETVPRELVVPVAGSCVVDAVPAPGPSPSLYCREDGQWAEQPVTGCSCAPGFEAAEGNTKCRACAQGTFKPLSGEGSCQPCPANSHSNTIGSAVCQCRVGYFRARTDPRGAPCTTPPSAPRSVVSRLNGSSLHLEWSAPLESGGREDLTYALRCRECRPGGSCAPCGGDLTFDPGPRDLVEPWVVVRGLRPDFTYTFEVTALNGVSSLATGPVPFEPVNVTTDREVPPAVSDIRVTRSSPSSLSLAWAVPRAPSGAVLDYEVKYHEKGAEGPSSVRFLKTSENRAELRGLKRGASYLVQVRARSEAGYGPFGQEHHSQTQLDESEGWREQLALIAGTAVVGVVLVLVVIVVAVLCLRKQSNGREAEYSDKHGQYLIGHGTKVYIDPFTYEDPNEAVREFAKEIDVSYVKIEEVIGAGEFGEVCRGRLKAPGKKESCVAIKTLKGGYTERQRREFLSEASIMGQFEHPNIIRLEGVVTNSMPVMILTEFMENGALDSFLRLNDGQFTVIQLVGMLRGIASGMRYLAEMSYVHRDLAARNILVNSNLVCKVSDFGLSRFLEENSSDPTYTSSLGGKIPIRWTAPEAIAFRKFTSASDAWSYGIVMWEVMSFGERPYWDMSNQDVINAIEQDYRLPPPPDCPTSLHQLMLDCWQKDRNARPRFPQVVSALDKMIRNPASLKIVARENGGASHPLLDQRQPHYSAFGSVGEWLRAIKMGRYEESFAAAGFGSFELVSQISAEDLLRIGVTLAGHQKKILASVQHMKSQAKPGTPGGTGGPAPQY
The conditions noted are these: EPHB4; 1 μM; read-out: % control.

The target of test [6] is T6, panel of 468 kinases (Homo sapiens, UniProt Q9HCP0).
T6 construct: purchased KINOMEscan (ScanMAX) service
T6 sequence (Q9HCP0 whole entry): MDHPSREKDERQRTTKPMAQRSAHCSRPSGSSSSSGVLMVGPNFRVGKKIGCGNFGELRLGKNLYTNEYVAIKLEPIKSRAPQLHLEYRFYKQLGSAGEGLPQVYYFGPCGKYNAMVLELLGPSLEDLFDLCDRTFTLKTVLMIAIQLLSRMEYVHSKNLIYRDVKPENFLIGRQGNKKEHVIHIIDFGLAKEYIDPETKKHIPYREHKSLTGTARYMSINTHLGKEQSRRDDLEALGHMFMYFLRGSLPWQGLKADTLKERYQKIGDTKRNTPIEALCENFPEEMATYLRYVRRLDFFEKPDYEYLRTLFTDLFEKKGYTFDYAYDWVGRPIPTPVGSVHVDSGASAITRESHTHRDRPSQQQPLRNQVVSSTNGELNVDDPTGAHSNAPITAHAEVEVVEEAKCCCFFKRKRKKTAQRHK
The note with it: CSNK1G1; 1 μM; read-out: % control.

For test [7], the target named is T7, panel of 468 kinases (Homo sapiens, UniProt Q14289).
T7 construct: purchased KINOMEscan (ScanMAX) service
T7 sequence (Q14289 whole entry): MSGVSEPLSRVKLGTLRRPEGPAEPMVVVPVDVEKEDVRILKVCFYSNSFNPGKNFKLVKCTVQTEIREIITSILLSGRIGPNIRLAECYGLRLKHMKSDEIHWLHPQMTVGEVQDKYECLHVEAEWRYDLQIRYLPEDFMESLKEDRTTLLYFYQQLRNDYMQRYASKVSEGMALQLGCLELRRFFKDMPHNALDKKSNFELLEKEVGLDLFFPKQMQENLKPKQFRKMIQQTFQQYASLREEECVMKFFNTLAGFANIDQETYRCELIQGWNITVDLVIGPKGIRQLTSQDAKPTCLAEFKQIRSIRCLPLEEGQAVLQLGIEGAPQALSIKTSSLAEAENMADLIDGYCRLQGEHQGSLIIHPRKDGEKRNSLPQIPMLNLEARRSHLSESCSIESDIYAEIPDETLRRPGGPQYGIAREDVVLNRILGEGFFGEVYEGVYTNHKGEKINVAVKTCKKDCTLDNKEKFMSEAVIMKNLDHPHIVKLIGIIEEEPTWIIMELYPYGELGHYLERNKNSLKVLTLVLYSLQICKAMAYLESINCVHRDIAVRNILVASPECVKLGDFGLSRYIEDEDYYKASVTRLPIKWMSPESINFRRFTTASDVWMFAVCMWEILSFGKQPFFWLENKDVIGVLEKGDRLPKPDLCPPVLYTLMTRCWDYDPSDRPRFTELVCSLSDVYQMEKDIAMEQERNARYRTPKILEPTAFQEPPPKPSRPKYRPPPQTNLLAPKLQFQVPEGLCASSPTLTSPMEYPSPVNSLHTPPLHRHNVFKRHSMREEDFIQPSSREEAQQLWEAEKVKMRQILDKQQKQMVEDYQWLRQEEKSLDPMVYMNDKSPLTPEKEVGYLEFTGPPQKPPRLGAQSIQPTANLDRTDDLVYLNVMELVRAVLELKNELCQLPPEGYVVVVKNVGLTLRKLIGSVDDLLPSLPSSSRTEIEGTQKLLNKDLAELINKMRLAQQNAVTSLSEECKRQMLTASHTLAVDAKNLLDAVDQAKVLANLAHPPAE
The note with it: PYK2; 1 μM; read-out: % control.

Test [8] concerns the target T8, panel of 468 kinases (Homo sapiens, UniProt P07947).
T8 construct: purchased KINOMEscan (ScanMAX) service
The note with it: YES; 1 μM; read-out: % control.

In test [9] the target is T9, panel of 468 kinases (Homo sapiens, UniProt Q9NWZ3).
T9 construct: purchased KINOMEscan (ScanMAX) service
T9 sequence (Q9NWZ3 1-460): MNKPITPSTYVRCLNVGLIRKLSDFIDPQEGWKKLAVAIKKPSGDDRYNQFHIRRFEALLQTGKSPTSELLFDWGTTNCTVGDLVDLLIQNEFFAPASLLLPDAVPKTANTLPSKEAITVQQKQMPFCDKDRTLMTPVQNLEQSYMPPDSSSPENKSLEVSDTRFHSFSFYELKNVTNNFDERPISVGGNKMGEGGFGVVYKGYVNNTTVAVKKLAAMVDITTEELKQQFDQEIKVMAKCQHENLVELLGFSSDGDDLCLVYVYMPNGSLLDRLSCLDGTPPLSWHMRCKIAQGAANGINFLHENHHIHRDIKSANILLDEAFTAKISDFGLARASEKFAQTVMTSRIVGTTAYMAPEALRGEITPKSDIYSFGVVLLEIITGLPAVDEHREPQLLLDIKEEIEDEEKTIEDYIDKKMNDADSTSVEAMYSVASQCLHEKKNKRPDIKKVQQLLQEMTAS
The conditions noted are these: IRAK4; 1 μM; read-out: % control.

T8 sequence (P07947 whole entry): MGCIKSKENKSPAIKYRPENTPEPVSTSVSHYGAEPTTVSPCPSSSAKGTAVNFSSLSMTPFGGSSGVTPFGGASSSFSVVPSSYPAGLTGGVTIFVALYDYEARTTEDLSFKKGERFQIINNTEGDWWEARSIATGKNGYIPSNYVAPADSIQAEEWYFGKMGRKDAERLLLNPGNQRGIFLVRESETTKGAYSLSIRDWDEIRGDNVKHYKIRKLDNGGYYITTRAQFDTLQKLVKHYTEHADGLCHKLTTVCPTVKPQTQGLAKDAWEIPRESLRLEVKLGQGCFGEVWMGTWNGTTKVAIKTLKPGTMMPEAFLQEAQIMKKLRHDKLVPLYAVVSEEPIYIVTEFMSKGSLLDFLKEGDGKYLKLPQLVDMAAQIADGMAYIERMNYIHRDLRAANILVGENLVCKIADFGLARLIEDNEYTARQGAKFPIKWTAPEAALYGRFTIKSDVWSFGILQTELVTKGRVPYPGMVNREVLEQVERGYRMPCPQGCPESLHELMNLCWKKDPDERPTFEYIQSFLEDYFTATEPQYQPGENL
T1 sequence (Q9UKE5 whole entry): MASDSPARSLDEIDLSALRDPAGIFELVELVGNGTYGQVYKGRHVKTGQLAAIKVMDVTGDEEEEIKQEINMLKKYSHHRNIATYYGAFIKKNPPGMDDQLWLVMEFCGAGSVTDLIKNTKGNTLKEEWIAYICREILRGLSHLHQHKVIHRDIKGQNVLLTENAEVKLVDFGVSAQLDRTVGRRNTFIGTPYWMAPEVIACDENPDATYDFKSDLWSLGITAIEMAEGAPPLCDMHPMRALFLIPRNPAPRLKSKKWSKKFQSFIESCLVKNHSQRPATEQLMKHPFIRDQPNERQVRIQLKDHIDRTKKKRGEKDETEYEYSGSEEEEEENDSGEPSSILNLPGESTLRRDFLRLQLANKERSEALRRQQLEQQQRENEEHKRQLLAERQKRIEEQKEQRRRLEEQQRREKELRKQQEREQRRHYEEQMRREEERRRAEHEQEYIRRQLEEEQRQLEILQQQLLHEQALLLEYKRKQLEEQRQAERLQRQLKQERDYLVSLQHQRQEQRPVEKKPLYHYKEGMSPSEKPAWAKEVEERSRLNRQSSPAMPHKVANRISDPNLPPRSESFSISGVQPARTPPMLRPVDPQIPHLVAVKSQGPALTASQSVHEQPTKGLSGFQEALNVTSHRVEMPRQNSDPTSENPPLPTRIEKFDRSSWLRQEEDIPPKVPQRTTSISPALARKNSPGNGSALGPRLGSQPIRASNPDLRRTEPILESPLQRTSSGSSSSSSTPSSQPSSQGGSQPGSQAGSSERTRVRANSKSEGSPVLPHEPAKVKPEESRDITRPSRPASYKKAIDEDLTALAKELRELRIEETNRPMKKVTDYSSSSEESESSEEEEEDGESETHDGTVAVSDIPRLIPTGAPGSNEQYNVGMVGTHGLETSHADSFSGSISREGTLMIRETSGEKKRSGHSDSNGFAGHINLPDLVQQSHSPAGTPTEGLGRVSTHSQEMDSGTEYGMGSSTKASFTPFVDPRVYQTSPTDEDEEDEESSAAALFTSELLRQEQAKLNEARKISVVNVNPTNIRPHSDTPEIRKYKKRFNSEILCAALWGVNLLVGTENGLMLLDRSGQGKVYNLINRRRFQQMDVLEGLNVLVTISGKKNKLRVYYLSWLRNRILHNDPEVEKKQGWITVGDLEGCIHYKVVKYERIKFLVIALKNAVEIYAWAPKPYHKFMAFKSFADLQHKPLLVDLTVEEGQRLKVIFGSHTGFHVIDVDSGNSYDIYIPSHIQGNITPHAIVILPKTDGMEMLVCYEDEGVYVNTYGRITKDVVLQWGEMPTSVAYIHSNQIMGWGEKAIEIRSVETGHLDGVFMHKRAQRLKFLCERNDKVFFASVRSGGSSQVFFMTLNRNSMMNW

As to `CNc1nc(Nc2ccc(C(=O)N3CCC(N4CCOCC4)CC3)c3c2OCO3)nc2[nH]cc(Cl)c12` [Compound 75, (7-((5-chloro-4-(methylamino)-7H-pyrrolo[2,3-d]pyrimidin-2-yl)amino)benzo[d][1,3]dioxol-4-yl)(4-morpholinopiperidin-1-yl)methanone], the remaining binding at 1 µM in test [1] is 39%; in test [2], 57%; in test [3], 56%; in test [4] it was 22%; in test [5], 100%; in test [6], 28%. For the same molecule, the remaining binding at 1 µM in [7] is 40%; in test [8] it was 100%; in [9], 82%.

Consider `CNc1nc(Nc2ccc(P3(=O)CCN(C4CCOCC4)CC3)cc2OC)nc2[nH]cc(Cl)c12` [Compound 77, 4-(4-((5-chloro-4-(methylamino)-7H-pyrrolo[2,3-d]pyrimidin-2-yl)amino)-3-methoxyphenyl)-1-(tetrahydro-2H-pyran-4-yl)-1,4-azaphosphinane 4-oxide], for which the remaining binding at 1 µM in test [1] came out at 72%; in [2] it was 74%; in [3] it was 20%; in test [4], 37%; in test [5] it was 100%; in [6], 100%. The remaining binding at 1 µM in [7] was 27%; in [8], 100%; in test [9], 98%.

Regarding `CNc1nc(Nc2ccc(S(=O)(=O)N3CCC(N4CCOCC4)CC3)cc2OC)nc2[nH]cc(Cl)c12` [Compound 12, 5-chloro-N2-(2-methoxy-4-((4-morpholinopiperidin-1-yl)sulfonyl)phenyl)-N4-methyl-7H-pyrrolo[2,3-d]pyrimidine-2,4-diamine], the remaining binding at 1 µM stood at 92% in test [1]; 73% in test [2]; 44% in test [3]; 65% in test [4]; 100% in [5]; 100% in test [6]. Besides, the remaining binding at 1 µM in test [7] came out at 35%; in test [8], 100%; in test [9] it was 95%.
